# Earlier results in patent US8350059B2, “Intermediates and methods for making zearalenone macrolide analogs” (Eisai R&D Management Co., Ltd., priority 2007, dated 2013).
# Tested on: Map/Erk kinase (MEK)
# Conditions: background statement
smiles,measurement,value
COc1cc(O)c2c(c1)/C=C/C[C@H](O)[C@H](O)C(=O)/C=C\C[C@H](C)OC2=O [F152],inhibition of the phosphorylating enzyme Map/Erk kinase (MEK),inhibit the phosphorylating enzyme Map/Erk kinase (MEK)
